We go through 27 compounds from patent US5698547A, “Cephalosporin antibiotics” (Microcide Pharmaceuticals, Inc., priority 1995, dated 1997).

SMILES strings stand for the structures. Values after ≈ are worked out from the molar mass of the structure shown. Where a name gives a salt, the structure may show the parent alone.

In the assay the test system is S. aureus Col (Meth^R) (lac^-). In words: MIC by agar dilution, S. aureus Col (Meth^R) (lac^-). Format: cell-based. The note with it: Staphylococcus aureus; agar dilution; S. aureus Col (Meth^R) (lac^-); read-out: MIC. On the procedure: The compounds of the invention were evaluated against several β-lactamresistant bacteria strains by determining the minimum inhibitory concentration (MIC, μg/ml) of each compound with respect to each strain. The MIC, the lowest concentration of antibiotic which inhibits growth of the test organism, was determined by the agar dilution method.
To determine the MIC for bacterial isolates, the test compound was incorporated in a series of two-fold dilutions into liquified Mueller-Hinton agar. Upon solidification, a number of different bacterial strains were spot inoculated with a replicating device onto the agar surface. […] The procedures used in these studies have been standardized by the National Committee for Clinical Laboratory Standards (NCCLS), as per the NCCLS publication entitled METHODS FOR DILUTION ANTIMICROBIAL SUSCEPTIBILITY TESTS (1991), which is incorporated herein by reference.
Aliquots of antimicrobial agents were prepared in phosphate buffered saline (PBS) at pH 7.2. Tween 20 or DMSO was used as a solubilizing vehicle as needed. Standard methods of vortexing, sonicating and gentle heat were used to facilitate solubilizing the test agent. Typically, the concentration of the stock solution was 10× that of the highest drug concentration tested. A 1.28 mg/mL stock solution was used with a subsequent highest working concentration of 128 μg/mL. Serial two-fold dilutions were done through ≤0.25 μg/mL. Each drug level was tested in duplicate. Two-fold drug dilutions were done in sterile 50 mL tubes with a final drug volume of 5 mL. Upon the addition of 45 mL of molten agar, a 10-fold dilution resulted. Two, 25 mL. plates were then poured into 15×150 mm square Petri plates with grids and allowed to harden.
A control plate with a reference drug, either cefotaxime, vancomycin or imipenem, was used as the positive growth control. Stock concentrations of reference antibiotics were prepared and frozen at -80° C. Upon preparation, the control plates were sealed and stored in the refrigerator for up to 1 week prior to use; however, imipenem control plates had to be prepared just prior to use. All test plates were used within 24 hours of preparation.
Satisfactory results were obtained where the inoculum contained about 10^4 colony forming units (cfu) ±0.5 logs. Starting with pure cultures of the test isolates on agar plates, a few isolated colonies were transferred to a tube of nutrient broth and allowed to grow 4-6 hours at 35°-36° C. to reach log-phase growth. Dropwise addition of the broth culture to PBS was done to match a 0.5 McFarland turbidity standard equal to 10^8 cfu/mL. This was further diluted ten-fold in PBS to reach a working inoculum concentration of 10^7 cfu/mL. When 1 μL of the working inoculum was applied to the agar surface a concentration of about 10^4 cfu per spot was obtained.
Disposable sterile 1 μL loops were used to inoculate test plates, with each isolate in a designated grid on the agar plate. An alternate method of inoculation involved the use of a replica plater, a device with 48 steel pins allowing the simultaneous inoculation of multiple isolates. After the spots had dried, the plates were incubated at 35°-36° C. for 16-20 hours. Endpoints were assessed as the minimum inhibitory concentration (MIC) of antimicrobial agent.
The novel agents of this invention are notable for their enhanced activity against S. aureus Col and Enterococci (E. faecium and E. faecalis). The S. aureus Col strain is a high-level PBP2a producer, whereas S. aureus Col 8A, its isogenic partner, lacks PBP2a. […] Thus, the compounds of the present invention are effective against PBP2a-producing bacteria.
The MIC is the smallest concentration in the dilution series that meets the test's criterion for growth inhibition. For the compound `N#Cc1ccccc1SC1=C(C(=O)O)N2C(=O)[C@@H](NC(=O)/C(=N\OC3CCCC3)c3csc(N)n3)[C@H]2SC1` [Cmpd 53, (7R)-7-[(Z)-2-(aminothiazol-4-yl)-2-(cyclopentyloxyimino)acetamido]-3-(2-cyanophenylthio)-3-cephem-4-carboxylic acid], the MIC was 4 µg/mL (≈ 7.01 µM).

For the compound `O=C(Cc1ccccc1)N[C@@H]1C(=O)N2C(C(=O)O)=C(Sc3cccc4ccccc34)CS[C@H]12` [Cmpd 54, (7R)-7-[(Phenylacetyl)amino]-3-(1-naphthalenylthio)-3-cephem-4-carboxylic acid], the MIC turned out to be 1 µg/mL (≈ 2.1 µM). Turning to `O=C(Cc1ccccc1)N[C@@H]1C(=O)N2C(C(=O)O)=C(Sc3cccc4c3CCCC4)CS[C@H]12` [Cmpd 56, (7R)-7-[(Phenylacetyl)amino]-3-(5,6,7,8-tetrahydronaphthalen-1-ylthio)-3-cephem-4-carboxylic acid], the MIC was determined as 1 µg/mL (≈ 2.08 µM). `O=C(Cc1ccccc1)N[C@@H]1C(=O)N2C(C(=O)O)=C(Sc3ccc4ccccc4c3Br)CS[C@H]12` [Cmpd 57, (7R)-7-[(Phenylacetyl)amino]-3-(1-bromo-naphthalen-2-ylthio)-3-cephem-4-carboxylic acid]: the MIC amounted to 0.5 µg/mL (≈ 0.9 µM). With `O=C(Cc1ccccc1)N[C@@H]1C(=O)N2C(C(=O)O)=C(Sc3ccc(CSC4=NCCN4)cc3I)CS[C@H]12` [Cmpd 59, (7R)-7-[(Phenylacetyl)amino]-3-(4-(2-imidazolin-2-ylthiomethyl)-2-iodophenylthio)-3-cephem-4-carboxylic acid], the MIC stood at 2 µg/mL (≈ 3 µM). As for `N=C(N)NC(=N)SCc1ccc(SC2=C(C(=O)O)N3C(=O)[C@@H](NC(=O)Cc4ccccc4)[C@H]3SC2)c(I)c1` [Cmpd 60, (7R)-7-[(Phenylacetyl)amino]-3-(4-(N-amidino)isothiouroniummethyl-2-iodophenylthio)-3-cephem-4-carboxylate, inner salt], the figure is 0.5 µg/mL; as for `N=C(NCCN1CCOCC1)SCc1ccc(SC2=C(C(=O)O)N3C(=O)[C@@H](NC(=O)Cc4ccccc4)[C@H]3SC2)c(I)c1` [Cmpd 61, (7R)-7-[(Phenylacetyl)amino]-3-(4-(N-morpholinoethyl)isothiouroniummethyl-2-iodophenylthio)-3-cephem-4-carboxylate, inner salt], 4 µg/mL; as for `CN(C)C(SCc1ccc(SC2=C(C(=O)[O-])N3C(=O)[C@@H](NC(=O)Cc4ccccc4)[C@H]3SC2)c(I)c1)=[N+](C)C` [Cmpd 62, (7R)-7-[(Phenylacetyl)amino]-3-(4-tetramethylisothiouroniummethyl-2-iodophenylthio)-3-cephem-4-carboxylate, inner salt], 4 µg/mL. As to `N=C(N)SCc1ccc(SC2=C(C(=O)O)N3C(=O)[C@@H](NC(=O)Cc4ccccc4)[C@H]3SC2)cc1` [Cmpd 63, (7R)-7-[(Phenylacetyl)amino]-3-(4-isothiouroniummethylphenylthio)-3-cephem-4-carboxylate, inner salt], the MIC was found to be 4 µg/mL.

For `N=C(N)SCc1ccccc1SC1=C(C(=O)O)N2C(=O)[C@@H](NC(=O)Cc3ccccc3)[C@H]2SC1` [Cmpd 64, (7R)-7-[(Phenylacetyl)amino]-3-(2-isothiouroniummethylphenylthio)-3-cephem-4-carboxylate, inner salt], the MIC was 0.5 µg/mL. As for `O=C(Cc1ccccc1)N[C@@H]1C(=O)N2C(C(=O)O)=C(Sc3ccc(CSc4ncn[nH]4)cc3)CS[C@H]12` [Cmpd 65, (7R)-7-[(Phenylacetyl)amino]-3-(4-(1,2,4-triazol-5-ylthiomethyl)phenylthio)-3-cephem-4-carboxylic acid], the figure is 8 µg/mL (≈ 14.8 µM). `N#CCC(=O)N[C@@H]1C(=O)N2C(C(=O)O)=C(Sc3ccc(CSC(=N)N)cc3I)CS[C@H]12` [Cmpd 66, (7R)-7-[(Cyanoacetyl)amino]-3-(4-isothiouroniummethyl-2-iodophenylthio)-3-cephem-4-carboxylate, inner salt]: the MIC was 2 µg/mL.

Regarding `O=C(Cc1ccccc1)N[C@@H]1C(=O)N2C(C(=O)O)=C(Sc3ccccc3CSc3ncn[nH]3)CS[C@H]12` [Cmpd 67, (7R)-7-[(Phenylacetyl)amino]-3-(2-(1,2,4-triazol-5-ylthiomethyl)phenylthio)-3-cephem-4-carboxylic acid], the MIC turned out to be 4 µg/mL (≈ 7.41 µM).

On to `O=C1CNC(SCc2ccccc2SC2=C(C(=O)O)N3C(=O)[C@@H](NC(=O)Cc4ccccc4)[C@H]3SC2)=N1` [Cmpd 68], for which the minimum inhibitory concentration (MIC) stood at 8 µg/mL (≈ 14.4 µM).

In the case of `CN(C)C(SCc1ccccc1SC1=C(C(=O)[O-])N2C(=O)[C@@H](NC(=O)Cc3ccccc3)[C@H]2SC1)=[N+](C)C` [Cmpd 69, (7R)-7-[(Phenylacetyl)amino]-3-(2-tetramethylisothiouroniummethylphenylthio)-3-cephem-4-carboxylate, inner salt], the MIC was found to be 4 µg/mL. With `O=C(Cc1ccccc1)N[C@@H]1C(=O)N2C(C(=O)O)=C(Sc3ccccc3CSc3ccncc3)CS[C@H]12` [Cmpd 70] the figure was 4 µg/mL (≈ 7.28 µM); with `Cn1nnnc1SCc1ccccc1SC1=C(C(=O)O)N2C(=O)[C@@H](NC(=O)Cc3ccccc3)[C@H]2SC1` [Cmpd 71], 16 µg/mL (≈ 28.8 µM); with `O=C(Cc1ccccc1)N[C@@H]1C(=O)N2C(C(=O)O)=C(Sc3ccccc3CSC3=NCCN3)CS[C@H]12` [Cmpd 72], 4 µg/mL (≈ 7.4 µM). Consider `C[n+]1ccc(SCc2ccccc2SC2=C(C(=O)[O-])N3C(=O)[C@@H](NC(=O)Cc4ccccc4)[C@H]3SC2)cc1` [Cmpd 73, (7R)-7-[(Phenylacetyl)amino]-3-(2-(N-methylpyridin-4-ium)thiomethyl)phenylthio)-3-cephem-4-carboxylate, inner salt], for which the MIC was 4 µg/mL. In the case of `CCN=C(NCC)SCc1ccccc1SC1=C(C(=O)O)N2C(=O)[C@@H](NC(=O)Cc3ccccc3)[C@H]2SC1` [Cmpd 74, (7R)-7-[(Phenylacetyl)amino]-3-(2-N,N'-diethylisothiouroniummethylphenylthio)-3-cephem-4-carboxylate, inner salt], the MIC was determined as 16 µg/mL. Take `O=C(Cc1ccccc1)N[C@@H]1C(=O)N2C(C(=O)O)=C(Sc3ccccc3CSc3ncccn3)CS[C@H]12` [Cmpd 75]: the MIC was 8 µg/mL (≈ 14.5 µM).

On to `CN=C(N)SCc1ccccc1SC1=C(C(=O)O)N2C(=O)[C@@H](NC(=O)Cc3ccccc3)[C@H]2SC1` [Cmpd 76, (7R)-7-[(Phenylacetyl)amino]-3-(2-N-methylisothiouroniummethylphenylthio)-3-cephem-4-carboxylate, inner salt], for which the MIC is 2 µg/mL. With `Cc1nnc(SCc2ccccc2SC2=C(C(=O)O)N3C(=O)[C@@H](NC(=O)Cc4ccccc4)[C@H]3SC2)s1` [Cmpd 77] the figure was 8 µg/mL (≈ 14 µM); with `CC(=O)NC(=N)SCc1ccccc1SC1=C(C(=O)O)N2C(=O)[C@@H](NC(=O)Cc3ccccc3)[C@H]2SC1` [Cmpd 78, (7R)-7-[(Phenylacetyl)amino]-3-(2-N-acetylamidinothiomethylphenylthio)-3-cephem-4-carboxylic acid], 4 µg/mL (≈ 7.19 µM); with `NC(=NC1CC1)SCc1ccccc1SC1=C(C(=O)O)N2C(=O)[C@@H](NC(=O)Cc3ccccc3)[C@H]2SC1` [Cmpd 79, (7R)-7-[(Phenylacetyl)amino]-3-(2-N-cyclopropylisothiouroniummethylphenylthio)-3-cephem-4-carboxylate, inner salt], 4 µg/mL. Regarding `N=C(N)SCc1cccc(SC2=C(C(=O)O)N3C(=O)[C@@H](NC(=O)Cc4ccccc4)[C@H]3SC2)c1` [Cmpd 80, (7R)-7-[(Phenylacetyl)amino]-3-(3-isothiouroniummethylphenylthio)-3-cephem-4-carboxylate, inner salt], the MIC amounted to 2 µg/mL. Regarding `C[n+]1cccc(SC2=C(C(=O)[O-])N3C(=O)[C@@H](NC(=O)Cc4ccccc4)[C@H]3SC2)c1-c1ccccc1` [Cmpd 82, (7R)-7-[(Phenylacetyl)amino]-3-(2-phenyl-N-methylpyridin-3-iumthio)-3-cephem-4-carboxylate], the MIC stood at 4 µg/mL (≈ 7.73 µM).
